Results from patent US20100330029A1, “Cancer Treatments with Radiation and Immunocytokines” (Merck Patent GmbH, priority 2008, published 2010).

Tested on: Lewis lung carcinoma (LLC)
Assay: tumor growth assay, Lewis lung carcinoma model
Format: in vivo, mice
Conditions: LLC-3, single-arm groups: cisplatin plus 3.6 Gy/d without EMD521873, or EMD521873 alone
Description: LL/2 (LLC) cells, a murine Lewis lung carcinoma cell line, were maintained in DMEM, supplemented with 10% heat-inactivated fetal bovine serum, L-glutamine, penicillin/streptomycin (Life Technologies, Inc.) at 37° C. and 7% CO2. LLC cells were implanted in female C57BL/6 mice.
For the tumor growth assay, cells growing exponentially in culture were injected as a single cell suspension in 100 μl of PBS intramuscularly into the upper legs of the mice. In experiments using a dual tumor model, cells were also implanted in the flanks of the mice. […] In Experiment LLC-7, tumors were implanted in the flank until established. Mice were treated on days 0 to 9, then, on day 12, tumors were excised using survival surgery. Thereafter, animal survival was monitored. In Experiment LLC-14, tumors were implanted subcutaneously in the flank until established. Mice were treated on days 0 to 6 and day 17, and tumor size was measured twice weekly for the duration of the study.
Tumors were measured with calipers in three dimensions for the duration of the experiment. Tumor volumes were calculated using the equation:
Volume=4/3π(L/2×W/2×H/2) • where L=length, W=width and H=height of the tumor
For local irradiation, mice were anesthetized by intraperitoneal injection of a solution of 2% tribromoethanol/3% xylazine. The amount injected was 0.02 ml/gram of the recipient's weight. Mice were restrained so that only their tumor-bearing leg was exposed to radiation, while the reminder of the mouse was shielded. Tumors were irradiated with ^137Cs gamma radiation at a dose rate of 1 Gy/min using a Gammacell® 40 Exactor (Nordion, Ottawa, ON).
Data from the subcutaneous tumor growth assay are presented in graphic form depicting average and standard deviations (sd) of tumor volumes or weights during and after dosing. Animal weight changes were determined by subtracting the animal weight at each time point from the initial body weight, on day 0, then dividing by the initial body weight and multiplying by 100. Therefore a value of 0 indicates no weight change.
Student's 2-tailed t test or Mann-Whitney Rank Sum test, as appropriate, was performed on the individual tumor volumes or animal weights, to determine significant differences between treatment groups.

SMILES: N.N.[Cl][Pt][Cl] [cisplatin, cis-diammineplatinum (II) dichloride, reference compound]
- T/C (day 19): 0.32
- complete responses: 0/6
